The source of these data is patent publication US20150202304A1, “ENCAPSULATION OF IMMISCIBLE PHASES IN SILK FIBROIN BIOMATERIALS” (TUFTS UNIVERSITY, priority 2012, published 2015).

The data set can be described thus: Release of adenosine from dissolvable silk films in PBS. As to conditions: within 15 minutes of exposure to 37° C. PBS; ~0.5, 0.25 or 0.125 mg adenosine per 0.2 mm^2 film. It is filed as physicochemical. On the procedure:
Rapid dissolution of films loaded with a dye and release of the dye from the films occur when the films are immersed in ˜37° C. buffer (FIG. 10). Dissolvable silk films loaded with an active agent (e.g., ˜0.5, 0.25 or 0.125 mg of adenosine per 0.2 mm^2 film) released the majority of the drug load (approx. 80%) within 15 minutes of exposure to 37° C. phosphate buffered saline (PBS) (Data not shown).

Consider `Nc1ncnc2c1ncn2[C@@H]1O[C@H](CO)[C@@H](O)[C@H]1O` [adenosine], for which the “drug load released from dissolvable silk films” value is on record as “approx. 80%”.
